Patent publication US20240226343A1, “NEUROPEPTIDE Y1 RECEPTOR (NPY1R) TARGETED THERAPEUTICS AND USES THEREOF” (RADIONETICS ONCOLOGY, INC., priority 2022, published 2024)
Like-named read-outs stand apart in the source and are kept apart here.

Molecular target: T1, hNPY1R (Homo sapiens, UniProt P25929)
T1 construct: SK-N-MC cells endogenously expressing the NPY1R receptor; endogenous in cells; host or cells: SK-N-MC cells (crude membrane fractions)
T1 sequence (P25929 1-384): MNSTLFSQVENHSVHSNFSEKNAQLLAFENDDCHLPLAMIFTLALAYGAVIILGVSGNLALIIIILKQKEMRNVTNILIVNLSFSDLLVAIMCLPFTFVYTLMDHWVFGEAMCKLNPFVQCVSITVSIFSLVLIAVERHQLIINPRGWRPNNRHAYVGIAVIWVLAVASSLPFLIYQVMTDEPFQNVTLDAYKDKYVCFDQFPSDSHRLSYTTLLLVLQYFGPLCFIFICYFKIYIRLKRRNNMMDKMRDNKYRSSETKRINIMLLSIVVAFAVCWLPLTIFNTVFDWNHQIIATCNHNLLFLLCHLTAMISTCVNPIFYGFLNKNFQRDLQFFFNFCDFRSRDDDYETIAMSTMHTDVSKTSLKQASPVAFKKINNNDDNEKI
Assay: NPY1R binding assay: SK-N-MC membranes, [125I]-Peptide YY (human) competition
Settings: SK-N-MC membranes
Method: Crude membrane fractions are prepared from SK-N-MC cells endogenously expressing the NPY1R receptor. The cells are grown to 85-100% confluence on standard tissue culture dishes in Eagle's Minimum Essential Medium supplemented with 10% dialyzed FBS. To prepare membranes, cells are scraped and collected in 1× Dulbecco's phosphate buffered saline and then pelleted at 1000 RPM's. The cell pellet is reconstituted in membrane preparation buffer (20 mM HEPES, 6 mM MgCl2 and 1 mM EGTA, protease inhibitor tablets, pH 7.4) and placed in a cell disruption vessel at 1000 PSI for 30 minutes on ice. The pressurized contents are then released and spun down at 1000 RPMs and the supernatant is collected and further centrifuged at 15,000 RPMs to pellet the membranes. The membrane pellet is resuspended in membrane preparation buffer, snap frozen and stored at −80° C. for later use.
[…] Assay contents are then filtered through unifilter GF/C microplates and washed with 9×400 μl of cold wash buffer (25 mM HEPES, 5 mM MgCl2, 1 mM CaCl2), 500 mM NaCl, 0.1% Tween-20, pH 7.4). Assay plates are read using a Top Count NXT and Ki values for compounds are determined using a GraphPad Prism 6 non-linear regression analysis.

[1] = data obtained after 60 minutes at 37° C., [125I]-Peptide YY 0.05 nM, read-out: hNPY1R binding Ki* †
[2] = data obtained after 120 minutes at rt, [125I]-Peptide YY, read-out: hNPY.R binding Ki* ††

Row | Structure (SMILES) | Ki [2] [nM] | Ki [1] [nM]
1 | CCC(=O)NCCNC(=O)/N=C(/N)NCCC[C@@H](NC(=O)C(c1ccccc1)c1cccc(OCCCCNC(=O)c2ccc(CNC(=O)CN3CCN(CC(=O)O)CCN(CC(=O)O)CCN(CC(=O)O)CC3)cc2)c1)C(=O)NCc1ccc(O)cc1 (stereo partly drawn) [Compound 123, 2,2′,2″-(10-(2-((4-((4-(3-((4R,Z)-9-amino-4-((4-hydroxybenzyl)carbamoyl)-2,11,16-trioxo-1-phenyl-3,8,10,12,15-pentaazaoctadec-9-en-1-yl)phenoxy)butyl)carbamoyl)benzyl)amino)-2-oxoethyl)-1,4,7,10-tetraazacyclododecane-1,4,7-triyl)triacetic acid] | < 10 | 
2 | CCC(=O)NCCNC(=O)/N=C(/N)NCCC[C@@H](NC(=O)C(c1ccccc1)c1cccc(OCCCCNC(=O)[C@H](CS(=O)(=O)O)NC(=O)CN2CCN(CC(=O)O)CCN(CC(=O)O)CCN(CC(=O)O)CC2)c1)C(=O)NCc1ccc(O)cc1 (single isomer, unassigned) [Compound 107B] |  | 10 to 100
3 | CCC(=O)NCCNC(=O)/N=C(/N)NCCC[C@@H](NC(=O)C(c1ccccc1)c1cccc(OCCCCNC(=O)CNC(=O)[C@@H](CC(N)=O)NC(=O)CN2CCN(CC(=O)O)CCN(CC(=O)O)CCN(CC(=O)O)CC2)c1)C(=O)NCc1ccc(O)cc1 (single isomer, unassigned) [Compound 112A] |  | 10 to 100
4 | CCC(=O)NCCNC(=O)/N=C(/N)NCCC[C@@H](NC(=O)C(c1ccccc1)c1ccc(NCCCNC(=O)CN2CCC(NC(=O)CN3CCN(CC(=O)O)CCN(CC(=O)O)CCN(CC(=O)O)CC3)CC2)cc1)C(=O)NCc1ccc(O)cc1 (single isomer, unassigned) [Compound 133B] | < 10 | 
5 | CCC(=O)NCCNC(=O)/N=C(/N)NCCC[C@@H](NC(=O)C(c1ccccc1)c1cccc(OCCCCNc2c(NCCNC(=O)CN3CCN(CC(=O)O)CCN(CC(=O)O)CCN(CC(=O)O)CC3)c(=O)c2=O)c1)C(=O)NCc1ccc(O)cc1 (single isomer, unassigned) [Compound 111B] |  | < 10
6 | CCC(=O)NCCNC(=O)/N=C(/N)NCCC[C@@H](NC(=O)C(c1ccccc1)c1cccc(OCCCCNc2c(NCCNC(=O)CN3CCN(CC(=O)O)CCN(CC(=O)O)CCN(CC(=O)O)CC3)c(=O)c2=O)c1)C(=O)NCc1ccc(O)cc1 (single isomer, unassigned) [Compound 111A] |  | < 10
7 | CCNC(=O)/N=C(/N)NCCC[C@@H](NC(=O)[C@@H](c1ccccc1)c1ccc(NCCCNC(=O)[C@H](N)CCCCNC(=O)CN2CCN(CC(=O)O)CCN(CC(=O)O)CCN(CC(=O)O)CC2)cc1)C(=O)NCc1ccc(O)cc1 (single isomer, unassigned) [Compound 144A] | < 10 | 
8 | CCC(=O)NCCNC(=O)/N=C(/N)NCCC[C@@H](NC(=O)C(c1ccccc1)c1cccc(OCCCCNC(=O)CCCCCNC(=O)CN2CCN(CC(=O)O)CCN(CC(=O)O)CCN(CC(=O)O)CC2)c1)C(=O)NCc1ccc(O)cc1 (single isomer, unassigned) [Compound 140B] | < 10 | 
9 | CCC(=O)NCCNC(=O)/N=C(/N)NCCC[C@@H](NC(=O)C(c1ccccc1)c1cccc(OCCCCNC(=O)CNC(=O)[C@@H](CC(N)=O)NC(=O)CN2CCN(CC(=O)O)CCN(CC(=O)O)CCN(CC(=O)O)CC2)c1)C(=O)NCc1ccc(O)cc1 (single isomer, unassigned) [Compound 112B] |  | < 10
10 | N=C(N)NCCC[C@@H](NC(=O)C(c1ccccc1)c1cccc(OCCOCCOCCOCCOCCNC(=O)CN2CCN(CC(=O)O)CCN(CC(=O)O)CCN(CC(=O)O)CC2)c1)C(=O)NCc1ccc(CNC(N)=O)cc1 (stereo partly drawn) [Compound 113A, 2,2′,2″-(10-(17-(3-(2-(((R)-5-guanidino-1-oxo-1-((4-(ureidomethyl)benzyl)amino)pentan-2-yl)amino)-2-oxo-1-phenylethyl)phenoxy)-2-oxo-6,9,12,15-tetraoxa-3-azaheptadecyl)-1,4,7,10-tetraazacyclododecane-1,4,7-triyl)triacetic acid—2,2,2-trifluoroacetic acid (1/1)] |  | > 100
11 | CCC(=O)NCCNC(=O)/N=C(/N)NCCC[C@@H](NC(=O)C(c1ccccc1)c1cccc(OCCOCCOCCOCCOCCNC(=O)CN2CCN(CC(=O)O)CCN(CC(=O)O)CCN(CC(=O)O)CC2)c1)C(=O)NCc1ccc(O)cc1 (single isomer, unassigned) [Compound 101A] |  | < 10

More lines, main results first:

Row | Ki [2] [nM] | Structure (SMILES) | Ki [1] [nM]
12 | < 10 | CCC(=O)NCCNC(=O)/N=C(/N)NCCC[C@@H](NC(=O)C(c1ccccc1)c1ccc(NCCCNc2c(NCCNC(=O)CN3CCN(CC(=O)O)CCN(CC(=O)O)CCN(CC(=O)O)CC3)c(=O)c2=O)cc1)C(=O)NCc1ccc(O)cc1 (single isomer, unassigned) [Compound 124A] | 10 to 100
13 | < 10 | CCC(=O)NCCNC(=O)/N=C(/N)NCCC[C@@H](NC(=O)C(c1ccccc1)c1cccc(OCCCCNC(=O)C[C@H]2NC(=O)[C@@H](CCCNC(=O)CN3CCN(CC(=O)O)CCN(CC(=O)O)CCN(CC(=O)O)CC3)NC2=O)c1)C(=O)NCc1c(F)cc(O)cc1F (single isomer, unassigned) [Compound 164A] | 
14 | < 10 | CCC(=O)NCCNC(=O)/N=C(/N)NCCC[C@@H](NC(=O)C(c1ccccc1)c1cccc(OCCCCNc2c(NCCNC(=O)[C@@H](CN)NC(=O)CN3CCN(CC(=O)O)CCN(CC(=O)O)CCN(CC(=O)O)CC3)c(=O)c2=O)c1)C(=O)NCc1ccc(O)cc1 (single isomer, unassigned) [Compound 115B] | 
15 | < 10 | CCC(=O)NCCNC(=O)/N=C(/N)NCCC[C@@H](NC(=O)C(c1ccccc1)c1cccc(NCCCNc2c(NCCNC(=O)CN3CCN(CC(=O)O)CCN(CC(=O)O)CCN(CC(=O)O)CC3)c(=O)c2=O)c1)C(=O)NCc1ccc(O)cc1 (single isomer, unassigned) [Compound 120A] | 
16 | < 10 | CCC(=O)NCCNC(=O)/N=C(/N)NCCC[C@@H](NC(=O)C(c1ccccc1)c1ccc(NCCCNC(=O)[C@H](N)CCC(=O)NCCN(C)CCNC(=O)CN2CCN(CC(=O)O)CCN(CC(=O)O)CCN(CC(=O)O)CC2)cc1)C(=O)NCc1ccc(O)cc1 (single isomer, unassigned) [Compound 145B] | 
17 | < 10 | CCNC(=O)/N=C(/N)NCCC[C@@H](NC(=O)C(c1ccccc1)c1ccc(NCCCNC(=O)[C@@H](CCCNC(=N)N)NC(=O)[C@@H](Cc2ccc(-c3ccccc3)cc2)NC(=O)CN2CCN(CC(=O)O)CCN(CC(=O)O)CCN(CC(=O)O)CC2)cc1)C(=O)NCc1ccc(O)cc1 (single isomer, unassigned) [Compound 152] | 
18 | < 10 | CCC(=O)NCCNC(=O)/N=C(/N)NCCC[C@@H](NC(=O)C(c1ccccc1)c1ccc(NCCCNC(=O)[C@H](N)CCCNC(=O)[C@@H](Cc2ccc(-c3ccccc3)cc2)NC(=O)CN2CCN(CC(=O)O)CCN(CC(=O)O)CCN(CC(=O)O)CC2)cc1)C(=O)NCc1ccc(O)cc1 (stereo partly drawn) [Compound 134B-In, indium (III) 2,2′,2″-(10-(2-(((R)-3-([1,1′-biphenyl]-4-yl)-1-(((R)-4-amino-5-((3-((4-((4R,Z)-9-amino-4-((4-hydroxybenzyl)carbamoyl)-2,11,16-trioxo-1-phenyl-3,8,10,12,15-pentaazaoctadec-9-en-1-yl)phenyl)amino)propyl)amino)-5-oxopentyl)amino)-1-oxopropan-2-yl)amino)-2-oxoethyl)-1,4,7,10-tetraazacyclododecane-1,4,7-triyl)triacetic acid] | 
19 | < 10 | CCC(=O)NCCNC(=O)/N=C(/N)NCCC[C@@H](NC(=O)C(c1ccccc1)c1ccc(NCCCNC(=O)[C@H]2CC[C@H](CNC(=O)CN3CCN(CC(=O)O)CCN(CC(=O)O)CCN(CC(=O)O)CC3)CC2)cc1)C(=O)NCc1ccc(O)cc1 (stereo partly drawn) [Compound 158, 2,2′,2″-(10-(2-((((1R,4r)-4-((3-((4-((4R,Z)-9-amino-4-((4-hydroxybenzyl)carbamoyl)-2,11,16-trioxo-1-phenyl-3,8,10,12,15-pentaazaoctadec-9-en-1-yl)phenyl)amino)propyl)carbamoyl)cyclohexyl)methyl)amino)-2-oxoethyl)-1,4,7,10-tetraazacyclododecane-1,4,7-triyl)triacetic acid] | 
20 | < 10 | CCC(=O)NCCNC(=O)/N=C(/N)NCCC[C@@H](NC(=O)C(c1ccccc1)c1ccc(NCCCNC(=O)[C@H](N)CCCNC(=O)[C@@H](Cc2ccc(-c3ccccc3)cc2)NC(=O)CN2CCN(CC(=O)O)CCN(CC(=O)O)CCN(CC(=O)O)CC2)cc1)C(=O)NCc1ccc(O)cc1 (single isomer, unassigned) [Compound 134A] | 
21 | < 10 | CCC(=O)NCCNC(=O)/N=C(/N)NCCC[C@@H](NC(=O)C(c1ccccc1)c1ccc(NCCCNc2c(NCCNC(=O)[C@@H](CN)NC(=O)CN3CCN(CC(=O)O)CCN(CC(=O)O)CCN(CC(=O)O)CC3)c(=O)c2=O)cc1)C(=O)NCc1ccc(O)cc1 (single isomer, unassigned) [Compound 137A] | 
